Laboratory results reported in patent publication US8815772B2, “Fungicidal heterocyclic carboxamides” (E I du Pont de Nemours and Company, priority 2012, dated 2014).
Marks after values point to notes of the source that are not given here.

How the values were obtained:
Botrytis cinerea = test: Test B: tomato botrytis, preventive spray on tomato seedlings, visual disease rating; settings: for Test B rating (disease control): rating without asterisk, 100 = 100% disease control, 0 = no disease control relative to the controls
Excerpt: (§2) General protocol for preparing test suspensions for Tests A-H: the test compounds were first dissolved in acetone in an amount equal to 3% of the final volume and then suspended at the desired concentration (in ppm) in acetone and purified water (50/50 mix by volume) containing 250 ppm of the surfactant Trem® 014 (polyhydric alcohol esters). The resulting test suspensions were then used in Tests A-H. Spraying a 200 ppm test suspension to the point of run-off on the test plants was the equivalent of a rate of 600 g/ha. Unless otherwise indicated, the rating values indicate a 200 ppm test suspension was used.
The test suspension was sprayed to the point of run-off on tomato seedlings. The following day the seedlings were inoculated with a spore suspension of Botrytis cinerea (the causal agent of tomato botrytis) and incubated in saturated atmosphere at 20° C. for 48 h, and then moved to a growth chamber at 24-27° C. for 2-3 days, after which time visual disease ratings were made.
A dash (-) indicates no test results. An asterisk “*” next to the rating value indicates a 40 ppm test suspension was used, a double asterisk “**” next to the rating value indicates a 130 ppm test suspension was used.

[1] = tested on: Puccinia recondita f. sp. tritici; test: Test G: wheat leaf rust, preventive spray on wheat seedlings, visual disease rating
Excerpt: as §2
The test suspension was sprayed to the point of run-off on wheat seedlings. The following day the seedlings were inoculated with a spore suspension of Puccinia recondita f. sp. tritici (the causal agent of wheat leaf rust) and incubated in a saturated atmosphere at 20° C. for 24 h, and then moved to a growth chamber at 20° C. for 6 days, after which time visual disease ratings were made.
(§3) An asterisk “*” next to the rating value indicates a 40 ppm test suspension was used, a double asterisk “**” next to the rating value indicates a 130 ppm test suspension was used.

[2] = tested on: Blumeria graminis f. sp. tritici; test: Test H: wheat powdery mildew, preventive spray on wheat seedlings, visual disease rating
Excerpt: General protocol for preparing test suspensions for Tests A-H: the test compounds were first dissolved in acetone in an amount equal to 3% of the final volume and then suspended at the desired concentration (in ppm) in acetone and purified water (50/50 mix by volume) containing 250 ppm of the surfactant Trem® 014 (polyhydric alcohol esters). The resulting test suspensions were then used in Tests A-H. Spraying a 200 ppm test suspension to the point of run-off on the test plants was the equivalent of a rate of 600 g/ha. Unless otherwise indicated, the rating values indicate a 200 ppm test suspension was used. (In Table A, an asterisk “*” next to the rating value indicates a 40 ppm test suspension was used; a double asterisk “**” next to the rating value indicates a 130 ppm.)
The test suspension was sprayed to the point of run-off on wheat seedlings. The following day the seedlings were inoculated with a spore dust of Blumeria graminis f. sp. tritici (also known as Erysiphe graminis f. sp. tritici, the causal agent of wheat powdery mildew) and incubated in a growth chamber at 20° C. for 8 days, after which time visual disease ratings were made.
as §3

Septoria tritici = test: Test F: wheat leaf blotch, preventive spray on wheat seedlings, visual disease rating; format: in vivo
Excerpt: (§1) A dash (-) indicates no test results.

Phytophthora infestans = format: in vivo; settings: rating without asterisk; 100 = 100% disease control, 0 = no disease control relative to the controls
Plasmopara viticola = test: Test A: grape downy mildew, curative spray on grape seedlings, visual disease rating; format: in vivo; settings: rating without asterisk; 100 = 100% disease control, 0 = no disease control relative to the controls
Excerpt: Upon removal, visual disease ratings were made. […] A dash (-) indicates no test results.

Septoria nodorum = test: Test E: Septoria glume blotch, preventive spray on wheat seedlings, visual disease rating; format: in vivo
Excerpt: as §1

cucumber seedlings = test: Test I: phytotoxicity to the cucumber seedlings of the test units; format: in vivo; settings: 250 ppm active ingredient applied to soil, 7 days
Experimental: Control of the southern root-knot nematode (Meloidogyne incognita) through contact and/or systemic means was evaluated in test units consisting of small open containers filled with a sandy soil mixture and cucumber seedlings.
Test compounds were formulated using a solution containing 50% acetone and 50% water. Test compounds were applied directly to the soil of the test units at concentrations of 250 or 50 ppm active ingredient. Each test was replicated 3 times. After treatment, the test units were allowed to dry for 1 h, after which time about 250 second-stage juvenile (J2) larvae were pipetted into the soil. The test units were held at 27° C. and watered as needed for 7 days.
Nematocidal efficacy was determined by the amount of root gall formation observed when compared to an untreated control. No gall formation was indicative of 100% nematode control. Gall formation equivalent to that found in the untreated control was indicative of 0% control. No nematode control rating was given to compounds showing significant phytotoxicity.

Alternaria solani = test: Test C: tomato early blight, preventive spray on tomato seedlings, visual disease rating; format: in vivo; settings: rating without asterisk; 100 = 100% disease control, 0 = no disease control relative to the controls
Excerpt: as §1

[3] = rating without asterisk, 100 = 100% disease control, 0 = no disease control relative to the controls

Molecule | Test B rating (100 = 100% disease control, 0 = no disease control relative to the controls) (Botrytis cinerea; no asterisk: standard test suspension, tomato botrytis) [%] | Test G rating (100 = 100% disease control, 0 = no disease control relative to the controls) ([1]; no asterisk: standard test suspension, wheat leaf rust) [%] | Test H rating (100 = 100% disease control, 0 = no disease control relative to the controls) ([2]; no asterisk: standard test suspension, wheat powdery mildew) [%] | Test B rating (disease control) (Botrytis cinerea) [%] | Test F rating (disease control) (Septoria tritici; [3]) [%] | Test D rating (disease control) (Phytophthora infestans) [%] | Test G rating (disease control) [1, 3] [%] | Test A rating (disease control) (Plasmopara viticola) [%] | Test H rating (disease control) [2, 3] [%] | Test E rating (disease control) (Septoria nodorum; [3]) [%] | phytotoxicity (cucumber seedlings) | Test C rating (disease control) (Alternaria solani) [%] | Test F rating (disease control) (Septoria tritici; * 40 ppm test suspension) | Test G rating (disease control) ([1]; * 40 ppm test suspension) | Test H rating (disease control) ([2]; * 40 ppm test suspension) | Test E rating (disease control) (Septoria nodorum; * 40 ppm test suspension)
3-difluoromethyl)-N-[3′,5′-difluoro-4′-(1-methyl-1H-pyrazol-3-yl)[1,1′-biphenyl]-2-yl]-1-methyl-1H-pyrazole [Compound 232] | 81 | 100 | 97 | – | – | – | – | – | – | – | – | – | – | – | – | –
O=C(Nc1ccccc1-c1cc(F)c(-n2ccc(C(F)(F)F)n2)c(F)c1)c1cccnc1Cl [Compound 170, 2-chloro-N-[3′,5′-difluoro-4′-[3-(trifluoromethyl)-1H-pyrazol-1-yl][1,1′-biphenyl]-2-yl]-3-pyridinecarboxamide] | – | – | – | 0 | 100 | 0 | 100 | 0 | 100 | 0 | – | – | – | – | – | –
Cn1cc(C(=O)Nc2ccccc2-c2cc(F)c(-n3ccc(C(F)(F)F)n3)c(F)c2)c(C(F)F)n1 [Compound 173, 3-(difluoromethyl)-N-[3′,5′-difluoro-4′-[3-(trifluoromethyl)-1H-pyrazol-1-yl][1,1′-biphenyl]-2-yl]-1-methyl-1H-pyrazole-4-carboxamide] | – | – | – | 72 | 100 | 0 | 100 | 0 | 100 | 100 | – | – | – | – | – | –
O=C(NCCc1ncc(-n2ccc(C(F)(F)F)n2)cc1Cl)c1ccccc1C(F)(F)F [Compound 85, N-[2-[3-chloro-5-[(3-trifluoromethyl)-1H-pyrazol-1-yl]-2-pyridinyl]ethyl]-2-(trifluoromethyl)benzamide] | – | – | – | 95 | 100 | 0 | 0 | 0 | 100 | 100 | – | – | – | – | – | –
CC(Cc1ccc(-n2ccc(C(F)(F)F)n2)cc1Cl)NC(=O)c1nccnc1Cl (stereo not drawn) [Compound 1] | – | – | – | 99 | 100 | 0 | 54 | – | 100 | 100 | – | – | – | – | – | –
O=C(NCCc1ccc(-n2ccc(C(F)(F)F)n2)cc1Cl)c1ncccc1C(F)(F)F [Compound 40, N-[2-[2-chloro-4-[3-(trifluoromethyl)-1H-pyrazol-1-yl]phenyl]ethyl]-3-(trifluoromethyl)-2-pyridinecarboxamide] | – | – | – | 66 | 100 | 0 | 0 | – | 100 | 100 | no significant phytotoxicity | – | – | – | – | –
O=C(NCCc1ccc(-n2ccc(C(F)(F)F)n2)cc1)c1ccccc1C(F)(F)F [Compound 5, 2-(trifluoromethyl)-N-[2-[4-[3-(trifluoromethyl)-1H-pyrazol-1-yl]phenyl]ethyl]benzamide] | – | – | – | 17 | 100 | 0 | 0 | – | 96 | 0 | no significant phytotoxicity | 83 | – | – | – | –
O=C(Nc1ccccc1-c1cc(F)c(-n2ccc(C(F)(F)F)n2)c(F)c1)c1ncccc1C(F)(F)F [Compound 172, N-[3′,5′-difluoro-4′-[3-(trifluoromethyl)-1H-pyrazol-yl][1,1′-biphenyl]-2-yl]-3-(trifluoromethyl)-2-pyridinecarboxamide] | – | – | – | 65 | 100 | 0 | 100 | 0 | 100 | 100 | – | – | – | – | – | –
O=C(NCC(F)(F)c1ccc(-n2ccc(C(F)(F)F)n2)cc1Cl)c1ncccc1C(F)(F)F [Compound 150, N-[2-[2-chloro-4-[3-(trifluoromethyl)-1H-pyrazol-1-yl]phenyl]-2,2-difluoroethyl]-3-(trifluoromethyl)-2-pyridinecarboxamide] | – | – | – | – | – | – | – | – | – | – | no significant phytotoxicity | – | 100* % | 0* % | 100* % | 100* %
